In patent publication US20150353495A1 (PORTOLA PHARMACEUTICALS, INC., priority 2010, published 2015):

Key:
Assay type in all cases: biochemical
[1] = target: T1, JAK2 (Homo sapiens, UniProt O60674); assay: Z'-LYTE kinase assay JAK2
T1 construct: 5 μl of catalytic domain recombinant Kinase enzyme+Tyr peptide substrate (Invitrogen, CA); purchased Invitrogen
How it was run: (§1)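 Z′-LYTE FRET, Tyr6 peptide, recombinant catalytic domain + ATP, 1 h RT, 1% DMSO final, duplicates; protease development 1 h RT; fluorescence read.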

[2] = target: T2, JAK3 (Homo sapiens, UniProt P52333); assay: Z'-LYTE kinase assay JAK3
T2 construct: 5 μl of catalytic domain recombinant Kinase enzyme+Tyr peptide substrate (Invitrogen, CA); purchased Invitrogen
How it was run: as §1

[3] = target: T3, JAK1 (Homo sapiens, UniProt P23458); assay: Z'-LYTE kinase assay JAK1
T3 construct: 5 μl of catalytic domain recombinant Kinase enzyme+Tyr peptide substrate (Invitrogen, CA); purchased Invitrogen
How it was run: as §1

T1 sequence (O60674 849-1124 limits assumed): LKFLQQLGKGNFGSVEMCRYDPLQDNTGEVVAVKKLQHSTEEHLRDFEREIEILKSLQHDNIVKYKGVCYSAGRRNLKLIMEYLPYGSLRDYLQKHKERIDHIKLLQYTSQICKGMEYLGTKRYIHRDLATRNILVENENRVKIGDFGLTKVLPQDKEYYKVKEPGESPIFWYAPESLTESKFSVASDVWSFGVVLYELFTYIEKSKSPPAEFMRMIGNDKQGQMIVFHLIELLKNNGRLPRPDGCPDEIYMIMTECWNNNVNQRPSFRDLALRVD
T2 sequence (P52333 822-1111 limits assumed): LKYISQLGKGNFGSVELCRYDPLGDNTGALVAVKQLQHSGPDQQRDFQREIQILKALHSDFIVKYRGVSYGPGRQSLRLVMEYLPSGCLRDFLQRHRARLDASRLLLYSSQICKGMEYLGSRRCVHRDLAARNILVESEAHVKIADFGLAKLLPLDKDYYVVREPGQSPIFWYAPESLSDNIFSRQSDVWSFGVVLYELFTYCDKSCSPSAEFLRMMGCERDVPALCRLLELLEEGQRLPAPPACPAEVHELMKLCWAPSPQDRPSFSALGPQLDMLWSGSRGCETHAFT
T3 sequence (P23458 875-1153 limits assumed): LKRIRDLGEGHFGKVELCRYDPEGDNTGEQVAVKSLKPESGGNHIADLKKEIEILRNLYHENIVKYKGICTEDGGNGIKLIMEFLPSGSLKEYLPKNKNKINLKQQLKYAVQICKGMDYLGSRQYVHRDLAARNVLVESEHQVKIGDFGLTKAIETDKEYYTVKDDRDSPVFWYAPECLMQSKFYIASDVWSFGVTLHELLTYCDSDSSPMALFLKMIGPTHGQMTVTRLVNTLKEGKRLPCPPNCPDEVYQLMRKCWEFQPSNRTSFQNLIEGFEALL

Row | Structure (SMILES) | IC50 [1] | IC50 [2] | IC50 [3]
1 | CCC(=O)N1CCC(c2ccc(Nc3cc(NCc4cccc5ccsc45)c(C(N)=O)cn3)cc2)CC1 [Example 211, 4-(benzo[b]thiophen-7-ylmethylamino)-6-(4-(1-propionylpiperidin-4-yl)phenylamino)nicotinamide] | 100 to 1000 nM | 1 to 10 nM | > 1000 nM
2 | N#CCN1CCC(c2ccc(Nc3cc(NCc4cccc(F)c4F)c(C(N)=O)cn3)cc2)CC1 [Example 215, 6-(4-(1-(cyanomethyl)piperidin-4-yl)phenylamino)-4-(2,3-difluorobenzylamino)nicotinamide] | 100 to 1000 nM | 10 to 100 nM | > 1000 nM
3 | NC(=O)c1cnc(Nc2ccc(C3CCN(CC(F)F)CC3)cc2)cc1NCc1cccc(F)c1F [Example 216, 4-(2,3-difluorobenzylamino)-6-(4-(1-(2,2-difluoroethyl)piperidin-4-yl)phenylamino)nicotinamide] | > 1000 nM | 10 to 100 nM | > 1000 nM
4 | CN(C)C(=O)c1ccc(Nc2cc(NCc3cccc(-n4ccnc4)c3)c(C(N)=O)cn2)cc1 [Example 224, 4-(3-(1H-imidazol-1-yl)benzylamino)-6-(4-(dimethylcarbamoyl)phenylamino)nicotinamide] | 100 to 1000 nM | 1 to 10 nM | 100 to 1000 nM
5 | CC(=O)N1CCN(c2ccc(Nc3cc(NCc4ccc(F)cc4F)c(C(N)=O)cn3)cc2)CC1 [Example 259, 6-(4-(4-acetylpiperazin-1-yl)phenylamino)-4-(2,4-difluorobenzylamino)nicotinamide] | 100 to 1000 nM | 10 to 100 nM | > 1000 nM
6 | COC[C@@H](Nc1cc(Nc2ccc(OC)cc2)ncc1C(N)=O)c1ccccc1 [Example 260, (S)-4-(2-methoxy-1-phenylethylamino)-6-(4-methoxyphenylamino)nicotinamide] | > 1000 nM | 10 to 100 nM | > 1000 nM
7 | COC[C@@H](Nc1cc(Nc2cccc(N3CCOCC3)c2)ncc1C(N)=O)c1ccccc1 [Example 261, (S)-4-(2-methoxy-1-phenylethylamino)-6-(3-morpholinophenylamino)nicotinamide] | 100 to 1000 nM | 10 to 100 nM | > 1000 nM
8 | COC[C@@H](Nc1cc(Nc2ccc(N3CCOCC3)cc2)ncc1C(N)=O)c1ccccc1 [Example 262, (S)-4-(2-methoxy-1-phenylethylamino)-6-(4-morpholinophenylamino)nicotinamide] | 100 to 1000 nM | 10 to 100 nM | > 1000 nM
9 | COC[C@@H](Nc1cc(Nc2ccc(C(=O)N(C)C)cc2)ncc1C(N)=O)c1ccccc1 [Example 263, (S)-6-(4-(dimethylcarbamoyl)phenylamino)-4-(2-methoxy-1-phenylethylamino)nicotinamide] | 100 to 1000 nM | 10 to 100 nM | > 1000 nM
10 | COC[C@@H](Nc1cc(Nc2ccc(C(=O)N3CCC3)cc2)ncc1C(N)=O)c1ccccc1 [Example 264, (S)-6-(4-(azetidine-1-carbonyl)phenylamino)-4-(2-methoxy-1-phenylethylamino)nicotinamide] | 100 to 1000 nM | 10 to 100 nM | 100 to 1000 nM
11 | COCC(=O)N1CCC[C@H](CNc2cc(Nc3ccc(C(=O)N(C)C)cc3)ncc2C(N)=O)C1 [Example 266, (R)-6-(4-(dimethylcarbamoyl)phenylamino)-4-((1-(2-methoxyacetyl)piperidin-3-yl)methylamino)nicotinamide] | > 1000 nM | 10 to 100 nM | > 1000 nM
12 | COCC(=O)N1CCC[C@H](CNc2cc(Nc3ccc(C(=O)N4CCCC4)cc3)ncc2C(N)=O)C1 [Example 267, (R)-4-((1-(2-methoxyacetyl)piperidin-3-yl)methylamino)-6-(4-(pyrrolidine-1-carbonyl)phenylamino)nicotinamide] | 100 to 1000 nM | 10 to 100 nM | > 1000 nM
13 | CN(C)S(=O)(=O)N(C)c1ccc(Nc2cc(NCc3ccccc3)c(C(N)=O)cn2)cc1 [Example 268, 4-(benzylamino)-6-(4-((N,N-dimethylsulfamoyl)(methyl)amino)phenylamino)nicotinamide] | 100 to 1000 nM | 10 to 100 nM | 100 to 1000 nM
14 | CC(=O)N1CCC[C@H](CNc2cc(Nc3ccc(NS(=O)(=O)N(C)C)cc3)ncc2C(N)=O)C1 [Example 269, (R)-4-((1-acetylpiperidin-3-yl)methylamino)-6-(4-(N,N-dimethylsulfamoylamino)phenylamino)nicotinamide] | 100 to 1000 nM | 10 to 100 nM | 100 to 1000 nM
15 | COc1ccc(Nc2cc(NC[C@H]3CCCNC3)c(C(N)=O)cn2)cc1 [Example 270, (S)-6-(4-methoxyphenylamino)-4-(piperidin-3-ylmethylamino)nicotinamide] | > 1000 nM | 100 to 1000 nM | 100 to 1000 nM
16 | CCC(=O)N1CCC[C@H](CNc2cc(Nc3ccc(OC)cc3)ncc2C(N)=O)C1 [Example 271, (R)-6-(4-methoxyphenylamino)-4-((1-propionylpiperidin-3-yl)methylamino)nicotinamide] | > 1000 nM | 10 to 100 nM | > 1000 nM
17 | CN(C)C(=O)c1ccc(Nc2cc(NCc3ccccc3)c(C(N)=O)cn2)cc1C(F)(F)F [Example 272, 4-(benzylamino)-6-(4-(dimethylcarbamoyl)-3-(trifluoromethyl)phenylamino)nicotinamide] | > 1000 nM | 10 to 100 nM | > 1000 nM
18 | CN(C)C(=O)c1ccc(Nc2cc(NCc3ccccc3)c(C(N)=O)cn2)cc1F [Example 273, 4-(benzylamino)-6-(4-(dimethylcarbamoyl)-3-fluorophenylamino)nicotinamide] | 100 to 1000 nM | 10 to 100 nM | > 1000 nM

Continued, values first:

Row | IC50 [1] | IC50 [2] | IC50 [3] | Structure (SMILES)
19 | 100 to 1000 nM | 10 to 100 nM | 100 to 1000 nM | CCC(=O)N1CCC(c2ccc(Nc3cc(N[C@H](C)C4CC4)c(C(N)=O)cn3)cc2)CC1 [Example 202, (R)-4-(1-cyclopropylethylamino)-6-(4-(1-propionylpiperidin-4-yl)phenylamino)nicotinamide]
20 | 10 to 100 nM | 1 to 10 nM | 100 to 1000 nM | CCC(=O)N1CCC(c2ccc(Nc3cc(NCc4c(F)cccc4F)c(C(N)=O)cn3)cc2)CC1 [Example 203, 4-(2,6-difluorobenzylamino)-6-(4-(1-propionylpiperidin-4-yl)phenylamino)nicotinamide]
21 | 10 to 100 nM | 1 to 10 nM | 100 to 1000 nM | NC(=O)c1cnc(Nc2cccc(C3CCOCC3)c2)cc1NCc1cccc(F)c1 [Example 204, 4-(3-fluorobenzylamino)-6-(3-(tetrahydro-2H-pyran-4-yl)phenylamino)nicotinamide]
22 | 10 to 100 nM | 1 to 10 nM | 100 to 1000 nM | NC(=O)c1cnc(Nc2cccc(C3CCOCC3)c2)cc1NCc1cccc(F)c1F [Example 205, 4-(2,3-difluorobenzylamino)-6-(3-(tetrahydro-2H-pyran-4-yl)phenylamino)nicotinamide]
23 | 10 to 100 nM | 1 to 10 nM | 100 to 1000 nM | NC(=O)c1cnc(Nc2cccc(C3CCOCC3)c2)cc1NCc1cc(F)cc(F)c1 [Example 206, 4-(3,5-difluorobenzylamino)-6-(3-(tetrahydro-2H-pyran-4-yl)phenylamino)nicotinamide]
24 | 10 to 100 nM | 1 to 10 nM | 100 to 1000 nM | NC(=O)c1cnc(Nc2cccc(C3CCOCC3)c2)cc1NCc1cc(F)ccc1F [Example 207, 4-(2,5-difluorobenzylamino)-6-(3-(tetrahydro-2H-pyran-4-yl)phenylamino)nicotinamide]
25 | 10 to 100 nM | 1 to 10 nM | 100 to 1000 nM | NC(=O)c1cnc(Nc2cccc(C3CCOCC3)c2)cc1NCc1cncc(F)c1 [Example 208, 4-((5-fluoropyridin-3-yl)methylamino)-6-(3-(tetrahydro-2H-pyran-4-yl)phenylamino)nicotinamide]
26 | 10 to 100 nM | 1 to 10 nM | 10 to 100 nM | CCC(=O)N1CCC(c2ccc(Nc3cc(NCc4cccc5[nH]ncc45)c(C(N)=O)cn3)cc2)CC1 [Example 210, 4-((1H-indazol-4-yl)methylamino)-6-(4-(1-propionylpiperidin-4-yl)phenylamino)nicotinamide]
27 | 10 to 100 nM | 1 to 10 nM | 100 to 1000 nM | NC(=O)c1cnc(Nc2ccc(C3CNC3)cc2)cc1NCc1cccc(F)c1F [Example 212, 6-(4-(azetidin-3-yl)phenylamino)-4-(2,3-difluorobenzylamino)nicotinamide]
28 | 10 to 100 nM | 1 to 10 nM | 100 to 1000 nM | NC(=O)c1cnc(Nc2ccc(C3CNC3)cc2)cc1NCc1cc(F)ccc1F [Example 213, 6-(4-(azetidin-3-yl)phenylamino)-4-(2,5-difluorobenzylamino)nicotinamide]
29 | 10 to 100 nM | 1 to 10 nM | 10 to 100 nM | NC(=O)c1cnc(Nc2ccc(C3CCNCC3)cc2)cc1NCc1cc(F)ccc1F [Example 214, 4-(2,5-difluorobenzylamino)-6-(4-(piperidin-4-yl)phenylamino)nicotinamide]
30 | 10 to 100 nM | 1 to 10 nM | 100 to 1000 nM | NC(=O)c1cnc(Nc2ccc(C3CCN(CCF)CC3)cc2)cc1NCc1cccc(F)c1F [Example 217, 4-(2,3-difluorobenzylamino)-6-(4-(1-(2-fluoroethyl)piperidin-4-yl)phenylamino)nicotinamide]
31 | 10 to 100 nM | 1 to 10 nM | 100 to 1000 nM | N#CCN1CCC(c2ccc(Nc3cc(NCc4cc(F)ccc4F)c(C(N)=O)cn3)cc2)CC1 [Example 218, 6-(4-(1-(cyanomethyl)piperidin-4-yl)phenylamino)-4-(2,5-difluorobenzylamino)nicotinamide]
